Assay results as given in patent US10517889B2, “Modulators of SMAD7 expression” (Ionis Pharmaceuticals, Inc., priority 2017, dated 2019).
Strand notation (5' to 3'): a small letter for the sugar, then the base; units joined by * are phosphorothioate-linked, units joined directly phosphodiester-linked; [ ] holds rarer units or linkages, { } end groups; capitals alone tell only the bases. k = constrained ethyl (cEt); [5mC] = 5-methylcytosine; d = 2'-deoxy (DNA)

Tests used:
human SMAD7 mRNA [1] = experiment: Antisense inhibition of human SMAD7 mRNA expression in Hep3B cells by 3-10-3 cEt gapmers, 10,000 nM, electroporation (Example 2); format: cell-based; conditions: approximately 24 hours
Procedure, shortened: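 Percent inhibition of SMAD7 mRNA, relative to untreated cells, after ~24 h exposure of electroporated Hep3B cells to 10,000 nM cEt gapmer; levels by qRT-PCR, corrected for total RNA.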

human SMAD7 mRNA [2] = experiment: Dose-dependent inhibition of human SMAD7 mRNA expression in Hep3B cells (Example 3, Study 1 and 2); format: cell-based; conditions: electroporation; for % inhibition of SMAD7 mRNA expression: approximately 16 hours; for IC50: Study 2 (740-20000 nM)
Procedure, shortened: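 Hep3B cells, 20,000 per well, electroporated with antisense oligonucleotide at 0.31, 1.25, 5.00 or 20.00 μM (first series) or 0.74, 2.22, 6.67 or 20.00 μM (second series). After ~16 h, SMAD7 mRNA measured by RT-qPCR (RTS5062), normalised to RIBOGREEN total RNA. Percent inhibition vs untreated cells; IC50 derived.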

[3] = Hep3B cells, electroporation with 10,000 nM antisense oligonucleotide, primer probe set RTS5062, relative to untreated control cells
[4] = 740 nM, Study 2, relative to untreated control cells
[5] = SMAD7 mRNA, Hep3B cells, 10,000 nM antisense oligonucleotide, electroporation, primer probe set RTS5062, relative to untreated control cells
[6] = Hep3B cells, electroporation with 10,000 nM antisense oligonucleotide, SMAD7 mRNA by RT-PCR (RTS5062), relative to untreated control cells
[7] = Hep3B cells, electroporation with 10,000 nM antisense oligonucleotide, RTS5062, percent inhibition of SMAD7 mRNA relative to untreated control cells

Substance	% inhibition of SMAD7 mRNA expression (human SMAD7 mRNA [1]; [3]) [%]	% inhibition of SMAD7 mRNA expression (human SMAD7 mRNA [2]; [4]) [%]	% inhibition of SMAD7 mRNA expression (human SMAD7 mRNA [2]; 2220 nM, Study 2) [%]	% inhibition of SMAD7 mRNA expression (human SMAD7 mRNA [2]; 6670.0 nM, Study 2) [%]	% inhibition of SMAD7 mRNA expression (human SMAD7 mRNA [2]; 20000.0 nM, Study 2) [%]	IC50 (human SMAD7 mRNA [2]) [nM]	% Inhibition (human SMAD7 mRNA [1]; [5]) [%]	% Inhibition (human SMAD7 mRNA [1]; SMAD7 mRNA, Hep3B cells, electroporation with 10,000 nM antisense oligonucleotide, primer probe set RTS5062, relative to untreated control cells) [%]	% Inhibition (human SMAD7 mRNA [1]; [6]) [%]	% Inhibition (human SMAD7 mRNA [1]; [7]) [%]	% Inhibition (human SMAD7 mRNA [1]; Hep3B cells, 10,000 nM antisense oligonucleotide, electroporation, RT-PCR primer probe set RTS5062, relative to untreated control cells) [%]
799406 (antisense kG*kG*kG*dA*dA*d[5mC]*dA*dT*dG*dG*d[5mC]*d[5mC]*dT*kT*kT*k[5mC]) [compound 799406]	65	30	51	77	84	3000	–	–	–	–	–
790732 (kG*k[5mC]*kT*dT*dA*dT*dT*dT*d[5mC]*dA*dT*dG*dT*kG*kG*kT; antisense) [compound 790732]	–	70	78	88	93	2000	69	–	–	–	–
829864 (antisense kG*kG*kG*dT*dA*dA*d[5mC]*dT*dG*d[5mC]*dT*dG*d[5mC]*kG*kG*kT) [compound 829864]	–	0	33	67	76	1000	–	68	–	–	–
799089 (antisense kA*kG*k[5mC]*dA*dA*dT*dA*d[5mC]*dT*dG*dT*dG*dA*kG*kG*kG) [compound 799089]	60	12	40	61	76	7000	–	–	–	–	–
830053 (kG*kG*kG*dT*dG*dA*dG*dT*dA*dA*d[5mC]*d[5mC]*dA*kG*k[5mC]*kT; antisense) [compound 830053]	–	29	56	79	87	2000	–	–	68	–	–
799544 (kT*kT*k[5mC]*dA*dA*d[5mC]*dA*dA*dG*dT*dT*d[5mC]*d[5mC]*k[5mC]*kT*kA; antisense) [compound 799544]	–	19	38	54	73	4000	–	–	–	72	–
799509 (antisense kA*kG*kA*dA*dA*d[5mC]*dA*dG*dT*d[5mC]*dT*d[5mC]*d[5mC]*kA*k[5mC]*kA) [compound 799509]	–	21	54	69	87	12000	–	–	57	–	–
799143 (antisense kT*kG*kG*dG*dT*dT*dA*dT*dG*dA*d[5mC]*dG*dG*kA*k[5mC]*k[5mC]) [compound 799143]	66	87	93	95	96	2000	61	–	–	–	–
799565 (kA*kG*kT*dA*dA*dA*d[5mC]*dA*dA*dT*dA*d[5mC]*d[5mC]*k[5mC]*kT*k[5mC]; antisense) [compound 799565]	–	23	49	67	86	11000	–	–	–	79	–
799858 (kG*kT*kA*dA*dT*dT*dT*dA*dG*d[5mC]*dA*dA*dT*kT*k[5mC]*k[5mC]; antisense) [compound 799858]	–	18	43	48	71	2000	–	–	–	–	64
799608 (kA*k[5mC]*kG*dA*dT*d[5mC]*dA*dA*d[5mC]*dT*dT*d[5mC]*dT*kT*kG*kA; antisense) [compound 799608]	–	35	56	70	76	3000	–	–	–	70	–
